We go through ten molecules from PMC6008489 (Bioorganic & Medicinal Chemistry, 2018).

What is called inhibition is the share of the control response that was lost under treatment. The term melting point denotes the temperature, or range, at which the solid turns liquid.

Data set [1] has as its target T1, ABL (Homo sapiens, UniProt P00519).
T1 construct: purchased Perkin Elmer ProfilerPro assay kit 1
The experiment in a line: 26-kinase panel mobility shift assay, single concentration. In kind it is biochemical. Conditions: read-out: % Inhibition ABL.
Protocol: Mobility Shift Assay Protocol
Screening of 26 kinases using a mobility shift assay
A mobility shift assay to determine kinase inhibition was carried out using a
modified version of the ProfilerPro assay kit 1 (Perkin Elmer, Coventry, UK)
including MPS1 and Aurora B. Each kit contained an enzyme plate, a substrate
plate, reconstitution buffer, 1 M DTT, protease inhibitor cocktail and termination
buffer. Test compounds were added as a solution in DMSO.
peptide phosphorylation assay was carried out as per the manufacturer’s
instructions. The electrophoretic separation and analysis of the phosphorylated
and non-phosphorylated peptides was carried out on a 4-sipper chip using a
LabChip EZReader II (Perkin Elmer). Results were expressed as % inhibition of
peptide phosphorylation relative to control wells for 0 % (no test compound) and
100 % (no ATP) inhibition. The percentage inhibition was calculated using the
% Inhibition = [1 - (% Conversion Sample / % Conversion 0% Inhibition Control)] x 100

Data set [2] in a line: Solubility as noted for the kinase panel screen. In kind it is physicochemical. Conditions: reason for screening at 30 µM instead of 100 µM.

T1 sequence (P00519 whole entry): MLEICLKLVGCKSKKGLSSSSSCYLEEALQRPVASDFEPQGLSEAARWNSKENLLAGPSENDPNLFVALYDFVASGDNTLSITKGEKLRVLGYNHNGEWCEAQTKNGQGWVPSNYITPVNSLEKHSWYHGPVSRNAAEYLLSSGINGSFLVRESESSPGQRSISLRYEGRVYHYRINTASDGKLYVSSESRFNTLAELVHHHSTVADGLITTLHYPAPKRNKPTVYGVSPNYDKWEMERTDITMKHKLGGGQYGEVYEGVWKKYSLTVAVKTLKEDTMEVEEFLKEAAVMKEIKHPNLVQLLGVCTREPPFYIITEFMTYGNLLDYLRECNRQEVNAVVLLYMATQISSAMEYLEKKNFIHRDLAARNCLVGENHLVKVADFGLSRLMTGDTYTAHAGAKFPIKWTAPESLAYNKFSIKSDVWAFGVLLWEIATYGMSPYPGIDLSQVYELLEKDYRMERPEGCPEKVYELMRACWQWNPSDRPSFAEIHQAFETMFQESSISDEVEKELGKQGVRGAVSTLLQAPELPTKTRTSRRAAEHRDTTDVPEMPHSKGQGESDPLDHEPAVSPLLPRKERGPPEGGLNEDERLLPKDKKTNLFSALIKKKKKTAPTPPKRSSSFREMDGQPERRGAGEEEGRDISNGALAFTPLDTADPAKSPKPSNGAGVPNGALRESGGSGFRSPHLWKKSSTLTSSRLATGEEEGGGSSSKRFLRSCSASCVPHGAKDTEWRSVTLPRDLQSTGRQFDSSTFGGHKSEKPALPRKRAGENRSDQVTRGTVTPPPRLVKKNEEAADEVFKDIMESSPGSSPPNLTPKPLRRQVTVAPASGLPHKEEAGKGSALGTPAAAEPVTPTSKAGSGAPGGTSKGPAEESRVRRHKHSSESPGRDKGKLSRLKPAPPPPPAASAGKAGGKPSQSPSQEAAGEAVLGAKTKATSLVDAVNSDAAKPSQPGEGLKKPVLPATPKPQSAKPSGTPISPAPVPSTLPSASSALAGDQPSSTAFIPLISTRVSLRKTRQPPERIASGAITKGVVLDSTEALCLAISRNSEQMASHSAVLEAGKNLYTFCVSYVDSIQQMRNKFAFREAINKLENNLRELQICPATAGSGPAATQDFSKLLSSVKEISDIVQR

Regarding `Nc1ccc[nH]c1=O` [Compound 1, 3-aminopyridin-2-one], the inhibition at 100 µM in data set [1] was determined as 5%.

For the molecule `COc1ncc(-c2ccncc2)cc1N` [Compound 5, 6-Methoxy-3,4′-bipyridin-5-amine], the inhibition at 100 µM in data set [1] was 26%.

Consider `Cc1nc(O)c(N)cc1-c1ccncc1` [Compound 15, 3-Amino-6-methyl-5-(pyridin-4-yl)pyridin-2-one], for which the inhibition at 100 µM in data set [1] turned out to be 5%.

`O=C(Nc1cc(-c2ccnc(NC3CC3)n2)c[nH]c1=O)c1ccccc1` [Compound 24]: the inhibition at 30 µM in data set [1] is 88%. In data set [2], the “solubility (in words)” value was “poor solubility”.

Regarding `Cn1cc(-c2c[nH]c(=O)c(N)c2)cn1` [Compound 2, 3-Amino-5-(1-methyl-1H-pyrazol-4-yl)pyridin-2(1H)-one], the melting point was determined as 264 °C. Also, the inhibition at 100 µM in data set [1] is 58%.

In the case of `Nc1cc(-c2ccnc3ccccc23)c[nH]c1=O` [Compound 6], in data set [1], the inhibition at 100 µM worked out at 66%.

Turning to `O=C(Nc1cc(-c2ccncc2)c[nH]c1=O)c1ccccc1` [Compound 16, N-(2-Oxo-5-(pyridin-4-yl)-1,2-dihydropyridin-3-yl)benzamide], the inhibition at 30 µM in data set [1] was determined as 55%. In addition, the “solubility (in words)” value in data set [2] was “poor solubility”.

As for `CNc1nccc(-c2c[nH]c(=O)c(N)c2)n1` [Compound 7], the inhibition at 100 µM in data set [1] turned out to be 67%.

Take `CN1CCN(c2ccc(C(=O)Nc3cc(-c4ccncc4)c[nH]c3=O)cc2)CC1` [Compound 22]: the inhibition at 30 µM in data set [1] stood at 96%. Further, the “solubility (in words)” value in data set [2] was “poor solubility”.

For the molecule `Nc1cc(-c2ccnc(NC3CC3)n2)c[nH]c1=O` [Compound 8], the inhibition at 100 µM in data set [1] was 43%.
